Literature values, collected in US7879746B2, “Hydrophilic polypropylene fibers having antimicrobial activity” (3M Innovative Properties Company, priority 1999, dated 2011).

Conditions: 100% active, glossary value

Compared with sorbitan monopalmitate [SPAN™ 40], sorbitan monostearate [ARLACEL™ 60] is lower in HLB: 6.7 for the first, 4.3 for the second.

For “sorbitan sequioleate (1½ mole adduct) [ARLACEL™ 83]”, the HLB is given as 3.7.
